Source: patent US20100190849A1, “Novel Clerodanes and Methods for Repelling Arthropods” (priority 2006, published 2010)
Marks after values point to notes of the source that are not given here.

Tests used:
Assay in all cases: Multiple-choice digging bioassay, fire ant workers
Format in all cases: in vivo
[1] = test system: black imported fire ants, Solenopsis richteri Forel
Method: (§1) The repellency of the two terpenoids, callicarpenal and intermedeol, against workers of red imported fire ants, Solenopsis invicta Buren, black imported fire ants, Solenopsis rickeri Forel, and a hybrid of these two species was evaluated using multiple-choice digging bioassays (Tables 9 & 10). […] Callicarpenal and intermedeol were compared with octanoic acid, a known fire ant repellant, at the 25.00 ppm level using two-choice digging bioassays (FIGS. 3 and 4).
(§2) Ants: Two Solenopsis invicta colonies were collected in Sharkey County, Mississippi, and two Solenopsis richteri colonies were collected in Granada County, Mississippi. Two colonies of the hybrid (S. invicta×S. richteri) colony were collected in Sunflower County, Mississippi. Fire ant mounds were shoveled and placed in 19-L plastic buckets. The inside wall of the bucket was then coated with baby powder (Cumberland Swan Holdings, Inc., Smyrna, Tenn.) to prevent ant escape. Following the water-drip method developed by Bank et al. (Banks, W. A., et al., Techniques for collecting, rearing, and handling imported fire ants, USDA SEA AATS-S-21 (1981)), ants were separated and then placed in a 44.5×60.0×13.0 cm plastic tray with inside walls coated with Fluon® (Ag Fluoropolymers, Chadds Ford, Pa.). Distilled water and 15% (w/v) sucrose water solution in separated test tubes which were plugged with cotton balls were placed in the trays. Heliocoverpa zea (Boddie) and tobacco budworm, Heliothis virescens (Fabricius) pupae were used as food sources. Inside each tray were one to three 14.0×2.0 cm Petri dishes with 1.0 cm of hardener dental plaster (Castone®; Dentsply International Inc. York, Pa.) on the bottom. Also, in the center of the Petri dish was a 5.0-cm diameter brood chamber. Two 8-mm access holes were made on the wall of the petri dish above the dental plaster. The Petri dish lid was painted black (1302 Gloss Black Spray Enamel, Louisville, Ky.)to block the light. All colonies were maintained at 22-25° C.
(§3) Fire ant workers dug and removed sand from the tube through the entry hole. The differences in the amount of removed sand among treated and control tubes were used to evaluate chemical repellency. Four 2 ml centrifuge tubes were mounted under a 14.0×2.3 cm Petri dish using glue (Arrow Fastener Co., inc., Saddle Brook, N.J.). Tubes were 5.0 cm away from the center of the Petri dish and at equal distance from each other. A 3-mm diameter access hole was drilled for each centrifuge tube, which went through the bottom of the Petri dish and the cap of the tube. The inner side of the Petri dish was coated with Fluon. Three concentrations of a test compound and one control were set up in each apparatus. Six concentrations, including […], 6.25, 12.50, and 25.00 ppm, were tested in two separated bioassays for each species and hybrid; however three more concentrations of callicarpenal, 50.00, 100.00, and […], were tested for S. invicta. Sand (Premium Play Sand, Plassein International, Longview, Tex.) was first sieved through a ™35 U.S.A. standard testing sieve (Thomas Scientific, Swedesboro, N.J.) and then washed with distilled water and dried at 350° C. for 12 h. A 3 ml dichloromethane solution of callicarpenal or intermedeol was mixed with 30 g sand in an aluminum pan. The sand was stirred every 2 min to facilitate the evaporation of the solvent under a fume hood. After dichloromethane evaporated (5 minutes), 1.92 ml distilled water was added and mixed with sand. Sand in the control tube was treated only with dichloromethane. In each tube a mean (±SD) 2.78 g (±0.06 g) wet sand was added. There was no open space inside the tube. Locations of each concentration were randomized. Fifty fire ant workers were introduced into the center of the Petri Dish. The experiment was conducted at 22±0.8° C. (mean±SD) temperature and 45.4%±11.87% relative humidity. After 24 h, sand in each vial was collected, dried at 150° C. for at least 4 hour, and weighed. […]

[2] = test system: hybrid (S. invicta×S. richteri)
Method: as §1, §2, §3

[3] = test system: red imported fire ants, Solenopsis invicta Buren
Method: as §1, §2, §3

## CC1=CCC[C@@H]2[C@@](C)(CC=O)[C@H](C)CC[C@@]12C [callicarpenal, 13,14,15,16-tetranorclerod-3-en-12-al]
[1]; S. richteri colony 1, Exp. 7, 0.75 ppm
  Sand removed (SE), mean weight of sand removed by ants 24 h after release: 0.40 (0.16) g
[1]; S. richteri colony 1, Exp. 7, 1.50 ppm
  Sand removed (SE), mean weight of sand removed by ants 24 h after release: 0.28 (0.12) g
[1]; S. richteri colony 1, Exp. 7, 3.15 ppm
  Sand removed (SE), mean weight of sand removed by ants 24 h after release: 0.21 (0.13) g
[1]; S. richteri colony 1, Exp. 8, 6.25 ppm
  Sand removed (SE), mean weight of sand removed by ants 24 h after release: 0.10 (0.04)* g
[1]; S. richteri colony 1, Exp. 8, 12.50 ppm
  Sand removed (SE), mean weight of sand removed by ants 24 h after release: 0.40 (0.17)* g
[1]; S. richteri colony 1, Exp. 8, 25.00 ppm
  Sand removed (SE), mean weight of sand removed by ants 24 h after release: 0.08 (0.04)* g
[1]; S. richteri colony 2, Exp. 9, 0.75 ppm
  Sand removed (SE), mean weight of sand removed by ants 24 h after release: 0.27 (0.16) g
[1]; S. richteri colony 2, Exp. 9, 1.50 ppm
  Sand removed (SE), mean weight of sand removed by ants 24 h after release: 0.85 (0.22) g
[1]; S. richteri colony 2, Exp. 9, 3.15 ppm
  Sand removed (SE), mean weight of sand removed by ants 24 h after release: 0.17 (0.11) g
[1]; S. richteri colony 2, Exp. 10, 6.25 ppm
  Sand removed (SE), mean weight of sand removed by ants 24 h after release: 0.10 (0.04)* g
[1]; S. richteri colony 2, Exp. 10, 12.50 ppm
  Sand removed (SE), mean weight of sand removed by ants 24 h after release: 0.10 (0.04)* g
[1]; S. richteri colony 2, Exp. 10, 25.00 ppm
  Sand removed (SE), mean weight of sand removed by ants 24 h after release: 0.01 (0.002)* g
[2]; Hybrid colony 1, Exp. 11, 0.75 ppm
  Sand removed (SE), mean weight of sand removed by ants 24 h after release: 0.66 (0.09) g
[2]; Hybrid colony 1, Exp. 11, 1.50 ppm
  Sand removed (SE), mean weight of sand removed by ants 24 h after release: 0.59 (0.10) g
[2]; Hybrid colony 1, Exp. 11, 3.15 ppm
  Sand removed (SE), mean weight of sand removed by ants 24 h after release: 0.30 (0.11) g
[2]; Hybrid colony 1, Exp. 12, 6.25 ppm
  Sand removed (SE), mean weight of sand removed by ants 24 h after release: 0.53 (0.13)* g
[2]; Hybrid colony 1, Exp. 12, 12.50 ppm
  Sand removed (SE), mean weight of sand removed by ants 24 h after release: 0.26 (0.05)* g
[2]; Hybrid colony 1, Exp. 12, 25.00 ppm
  Sand removed (SE), mean weight of sand removed by ants 24 h after release: 0.39 (0.14)* g
[2]; Hybrid colony 2, Exp. 13, 0.75 ppm
  Sand removed (SE), mean weight of sand removed by ants 24 h after release: 0.53 (0.14) g
[2]; Hybrid colony 2, Exp. 13, 1.50 ppm
  Sand removed (SE), mean weight of sand removed by ants 24 h after release: 0.36 (0.09) g
[2]; Hybrid colony 2, Exp. 13, 3.15 ppm
  Sand removed (SE), mean weight of sand removed by ants 24 h after release: 0.58 (0.12) g
[2]; Hybrid colony 2, Exp. 14, 6.25 ppm
  Sand removed (SE), mean weight of sand removed by ants 24 h after release: 0.47 (0.09)* g
[2]; Hybrid colony 2, Exp. 14, 12.50 ppm
  Sand removed (SE), mean weight of sand removed by ants 24 h after release: 0.30 (0.11)* g
[2]; Hybrid colony 2, Exp. 14, 25.00 ppm
  Sand removed (SE), mean weight of sand removed by ants 24 h after release: 0.21 (0.11)* g
[2]; hybrid, two colonies, in sand, 24 h
  concentration at which significant repellency was shown: ≥ 6.25 ppm
[3]; S. invicta colony 1, Exp. 1, 0.75 ppm
  Sand removed (SE), mean weight of sand removed by ants 24 h after release: 0.19 (0.07) g
[3]; S. invicta colony 1, Exp. 1, 1.50 ppm
  Sand removed (SE), mean weight of sand removed by ants 24 h after release: 0.24 (0.15) g
[3]; S. invicta colony 1, Exp. 1, 3.15 ppm
  Sand removed (SE), mean weight of sand removed by ants 24 h after release: 0.40 (0.20) g
[3]; S. invicta colony 1, Exp. 2, 6.25 ppm
  Sand removed (SE), mean weight of sand removed by ants 24 h after release: 0.21 (0.12) g
[3]; S. invicta colony 1, Exp. 2, 12.50 ppm
  Sand removed (SE), mean weight of sand removed by ants 24 h after release: 0.48 (0.19) g
[3]; S. invicta colony 1, Exp. 2, 25.00 ppm
  Sand removed (SE), mean weight of sand removed by ants 24 h after release: 0.08 (0.05) g
[3]; S. invicta colony 1, Exp. 3, 50.00 ppm
  Sand removed (SE), mean weight of sand removed by ants 24 h after release: 0.04 (0.004)* g
[3]; S. invicta colony 1, Exp. 3, 100.00 ppm
  Sand removed (SE), mean weight of sand removed by ants 24 h after release: 0.02 (0.008)* g
[3]; S. invicta colony 1, Exp. 3, 150.00 ppm
  Sand removed (SE), mean weight of sand removed by ants 24 h after release: 0.03 (0.007)* g
[3]; S. invicta colony 2, Exp. 4, 0.75 ppm
  Sand removed (SE), mean weight of sand removed by ants 24 h after release: 0.32 (0.16) g
[3]; S. invicta colony 2, Exp. 4, 1.50 ppm
  Sand removed (SE), mean weight of sand removed by ants 24 h after release: 0.32 (0.15) g
[3]; S. invicta colony 2, Exp. 4, 3.15 ppm
  Sand removed (SE), mean weight of sand removed by ants 24 h after release: 0.36 (0.11) g
[3]; S. invicta colony 2, Exp. 5, 6.25 ppm
  Sand removed (SE), mean weight of sand removed by ants 24 h after release: 0.24 (0.21) g
[3]; S. invicta colony 2, Exp. 5, 12.50 ppm
  Sand removed (SE), mean weight of sand removed by ants 24 h after release: 0.45 (0.18) g
[3]; S. invicta colony 2, Exp. 5, 25.00 ppm
  Sand removed (SE), mean weight of sand removed by ants 24 h after release: 0.02 (0.01) g
[3]; S. invicta colony 2, Exp. 6, 50.00 ppm
  Sand removed (SE), mean weight of sand removed by ants 24 h after release: 0.02 (0.007)* g
[3]; S. invicta colony 2, Exp. 6, 100.00 ppm
  Sand removed (SE), mean weight of sand removed by ants 24 h after release: 0.08 (0.06)* g
[3]; S. invicta colony 2, Exp. 6, 150.00 ppm
  Sand removed (SE), mean weight of sand removed by ants 24 h after release: 0.07 (0.03)* g
[3]; S. invicta, two colonies, in sand, 24 h
  concentration at which significant repellency was shown: ≥ 50.00 ppm
